The source of these data is US11331299B2, “Medicinal use of serrulatane diterpenes” (The University of Sydney, priority 2016, dated 2022).

The target of one assay is T1, L3MBTL3 (h) MBT domain (Homo sapiens, UniProt Q96JM7).
T1 construct: Tudor, MBT and chromo domains gauge the degree of lysine methylation; Eurofins CEREP (France), contract laboratory
T1 sequence (Q96JM7 225-555 limits assumed): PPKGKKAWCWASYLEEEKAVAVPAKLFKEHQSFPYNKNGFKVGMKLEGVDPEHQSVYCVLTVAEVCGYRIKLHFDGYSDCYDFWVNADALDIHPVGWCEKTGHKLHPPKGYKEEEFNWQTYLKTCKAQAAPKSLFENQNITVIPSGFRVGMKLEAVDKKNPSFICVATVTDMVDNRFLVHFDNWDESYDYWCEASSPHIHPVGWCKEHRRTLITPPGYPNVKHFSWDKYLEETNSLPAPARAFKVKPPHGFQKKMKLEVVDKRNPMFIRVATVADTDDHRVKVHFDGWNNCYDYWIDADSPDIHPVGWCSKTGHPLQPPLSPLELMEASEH
Briefly: Epigenetic binding assay, MBT domain. Particulars: read-out: % Inhibition of Control Specific Binding.

The target in another assay is T2, HDAC6 (h) (Homo sapiens, UniProt Q9UBN7).
T2 sequence (Q9UBN7 1-1215): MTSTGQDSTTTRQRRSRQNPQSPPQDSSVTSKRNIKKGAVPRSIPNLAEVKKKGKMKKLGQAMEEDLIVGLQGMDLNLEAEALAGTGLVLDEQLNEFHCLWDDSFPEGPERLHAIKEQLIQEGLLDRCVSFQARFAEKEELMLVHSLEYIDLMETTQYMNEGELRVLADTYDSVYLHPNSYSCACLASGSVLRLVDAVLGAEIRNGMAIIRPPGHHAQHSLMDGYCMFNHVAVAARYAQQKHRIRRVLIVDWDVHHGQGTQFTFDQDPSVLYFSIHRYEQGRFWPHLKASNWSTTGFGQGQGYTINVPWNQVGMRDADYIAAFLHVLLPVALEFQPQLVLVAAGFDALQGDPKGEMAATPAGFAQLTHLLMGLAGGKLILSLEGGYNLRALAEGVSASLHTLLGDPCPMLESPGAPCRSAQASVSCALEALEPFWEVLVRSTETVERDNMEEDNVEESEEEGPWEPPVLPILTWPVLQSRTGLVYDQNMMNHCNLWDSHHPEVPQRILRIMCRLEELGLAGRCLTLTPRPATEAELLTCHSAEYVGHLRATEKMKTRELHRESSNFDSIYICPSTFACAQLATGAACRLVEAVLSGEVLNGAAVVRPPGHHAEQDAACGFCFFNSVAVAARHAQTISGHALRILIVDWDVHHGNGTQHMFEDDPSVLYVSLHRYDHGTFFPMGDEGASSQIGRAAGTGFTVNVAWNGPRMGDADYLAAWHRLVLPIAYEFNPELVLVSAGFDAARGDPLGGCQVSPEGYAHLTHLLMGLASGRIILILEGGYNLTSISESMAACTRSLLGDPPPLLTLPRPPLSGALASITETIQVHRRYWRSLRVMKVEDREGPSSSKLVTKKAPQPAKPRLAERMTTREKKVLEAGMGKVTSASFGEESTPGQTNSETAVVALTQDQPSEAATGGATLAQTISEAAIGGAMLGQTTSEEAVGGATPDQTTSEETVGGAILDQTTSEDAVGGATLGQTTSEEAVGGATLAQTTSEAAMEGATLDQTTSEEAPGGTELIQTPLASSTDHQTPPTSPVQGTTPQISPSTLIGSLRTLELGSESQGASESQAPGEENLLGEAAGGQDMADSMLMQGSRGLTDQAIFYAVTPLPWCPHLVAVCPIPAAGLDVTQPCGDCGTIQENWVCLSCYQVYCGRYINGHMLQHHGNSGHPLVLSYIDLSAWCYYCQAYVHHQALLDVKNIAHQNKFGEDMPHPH
The experiment in a line: Epigenetic enzyme assay, Histone deacetylase (HDACs). In kind it is biochemical. The note with it: read-out: % Inhibition of Control Values.

Another assay deals with MLL complex (h) (Homo sapiens, UniProt Q03164). The experiment in a line: Epigenetic enzyme assay, Methyltransferases (MTs). Format: biochemical. Particulars: for inhibition at 10 µM: read-out: % Inhibition of Control Values.
The target of the next assay is SETDB1 (h) (Homo sapiens, UniProt Q15047). The experiment in a line: Epigenetic enzyme assay, Methyltransferases (MTs). In kind it is biochemical. Particulars: for inhibition at 10 µM: read-out: % Inhibition of Control Values.
Assay [1] deals with PKBbeta/AKT2(h) (substrate histone H3 full length) (Homo sapiens, UniProt P31751). The experiment in a line: Epigenetic enzyme assay, Kinases. In kind it is biochemical. Particulars: read-out: % Inhibition of Control Values.
Chain of PKBbeta/AKT2(h) (substrate histone H3 full length) (P31751 whole entry): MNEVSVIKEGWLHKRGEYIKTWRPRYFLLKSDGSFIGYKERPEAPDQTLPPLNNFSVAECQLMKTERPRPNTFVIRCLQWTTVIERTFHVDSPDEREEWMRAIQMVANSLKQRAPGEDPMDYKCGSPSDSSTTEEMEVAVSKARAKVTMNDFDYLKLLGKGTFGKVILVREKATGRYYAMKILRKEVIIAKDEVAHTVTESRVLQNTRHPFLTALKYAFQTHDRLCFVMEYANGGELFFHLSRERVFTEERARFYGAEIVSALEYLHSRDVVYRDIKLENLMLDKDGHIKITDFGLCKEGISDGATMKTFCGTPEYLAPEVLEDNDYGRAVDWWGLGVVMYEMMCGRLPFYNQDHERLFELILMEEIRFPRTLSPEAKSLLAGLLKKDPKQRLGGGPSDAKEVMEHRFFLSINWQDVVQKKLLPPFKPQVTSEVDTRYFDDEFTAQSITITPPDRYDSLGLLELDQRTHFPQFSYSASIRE
For a further assay, the target named is T3, 5-Lipoxygenase (Homo sapiens, UniProt P09917).
T3 construct: host or cells: Insect Sf9 cells
T3 sequence (P09917 1-674): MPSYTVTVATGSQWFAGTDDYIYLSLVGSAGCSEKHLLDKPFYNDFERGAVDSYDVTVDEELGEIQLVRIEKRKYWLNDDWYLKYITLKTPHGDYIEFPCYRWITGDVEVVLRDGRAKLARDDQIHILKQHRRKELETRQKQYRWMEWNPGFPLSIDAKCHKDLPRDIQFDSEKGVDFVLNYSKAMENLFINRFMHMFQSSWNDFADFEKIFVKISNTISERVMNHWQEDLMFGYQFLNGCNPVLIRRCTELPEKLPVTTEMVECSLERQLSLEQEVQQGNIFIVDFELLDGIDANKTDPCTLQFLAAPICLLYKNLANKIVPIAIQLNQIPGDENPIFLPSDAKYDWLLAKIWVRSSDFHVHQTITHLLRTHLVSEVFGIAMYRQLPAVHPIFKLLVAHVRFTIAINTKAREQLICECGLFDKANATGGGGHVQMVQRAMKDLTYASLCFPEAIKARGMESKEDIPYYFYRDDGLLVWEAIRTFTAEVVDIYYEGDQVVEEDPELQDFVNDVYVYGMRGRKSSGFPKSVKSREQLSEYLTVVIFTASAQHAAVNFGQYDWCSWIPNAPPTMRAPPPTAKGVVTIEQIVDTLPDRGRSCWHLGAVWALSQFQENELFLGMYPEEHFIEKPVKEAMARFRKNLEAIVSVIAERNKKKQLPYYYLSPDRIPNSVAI
Briefly: 5-Lipoxygenase. The note with it: for remaining activity at 10 µM: assay year 2015, read-out: % Control Response. Format: biochemical.

The subject of a further assay is HCT-8. Briefly: OncoPanel cell proliferation assay (10-day). Format: cell-based, human. Particulars: for EC50 / GI50 / IC50: Homo sapiens, HCT-8, Colon; for EC50: read-out: Cell Count EC50; for GI50: read-out: Cell Count GI50; for IC50: read-out: Cell Count IC50.

“And” between values parts separate entries of the source, which are not always exact repeats. Equal entries are not always repeated.

As usually defined, the inhibition is the change of the read-out against control, counted positive when it falls. As a reminder, the EC50 is the concentration that produces a half-maximal response. Broadly, the GI50 is the concentration at which growth is held to half of that of the control. Usually IC50 stands for the concentration at which inhibition is half-maximal. Take `CC(C)=CCC[C@@H]1C(O)Oc2c(C)cc(O)c3c2[C@H]1CC[C@H]3C` (stereo partly shown) [Compound 2, 5,18-epoxyserrulat-14-en-8,18-diol]: the inhibition at 10 µM was determined as 29% on L3MBTL3 (h) MBT domain; 2% at HDAC6 (h); 22% at MLL complex (h); 43% on SETDB1 (h); 11% in assay [1]. The remaining activity at 10 µM at 5-Lipoxygenase stood at 53%. In the assay on HCT-8, the EC50 was 6270 nM. The GI50 in the assay on HCT-8 was 6240 nM. Moreover, in the assay with HCT-8, the IC50 was determined as 6270 nM.

For the compound `CC(C)=CCC[C@@H]1COc2c(C)cc(O)c3c2[C@H]1CC[C@H]3C` [Compound 3, 5,18-epoxy-8-hydroxyserrulat-14-ene], the inhibition at 10 µM was 33% at L3MBTL3 (h) MBT domain; -18% at HDAC6 (h); 11% on MLL complex (h); 52% on SETDB1 (h); 12% in assay [1]. Also, the remaining activity at 10 µM on 5-Lipoxygenase turned out to be 67%.

`CC(C)=CCC[C@H](CO)[C@@H]1CC[C@@H](C)c2c1cc(C)c(O)c2O` [Compound 1, 7,8,18-trihydroxyserrulat-14-ene]: the inhibition at 10 µM was found to be 22% on L3MBTL3 (h) MBT domain; 12% on HDAC6 (h); 2% at MLL complex (h); 53% at SETDB1 (h); 13% in assay [1]. The remaining activity at 10 µM at 5-Lipoxygenase was 79%. In addition, the IC50 at 5-Lipoxygenase (concentration-response 10 to 0.01 μM) was 2300 nM and 2310 nM; in the assay on HCT-8, 1230 nM. Further, the “Relative cell count (%) Mean” value in the assay on HCT-8 (HCT-8, 3.00E+00 microM) came to 1.9%; in the assay with HCT-8 (HCT-8, 3.00E+01 microM) it was 0.0%; with HCT-8 (HCT-8, 3.01E−01 microM), 94.9%; with HCT-8 (HCT-8, 3.01E−02 microM) it was 91.8%; with HCT-8 (HCT-8, 3.02E−03 microM), 104.1%; with HCT-8 (HCT-8, 9.49E+00 microM) it was 0.0%. Also, the “Relative cell count (%) Mean” value in the assay with HCT-8 (HCT-8, 9.51E−01 microM) is given as 72.6%; with HCT-8 (HCT-8, 9.52E−02 microM), 100.8%; with HCT-8 (HCT-8, 9.53E−03 microM) it was 91.0%; with HCT-8 (HCT-8, 9.55E−04 microM) it was 102.6%. In addition, in the assay with HCT-8, the EC50 is 1230 nM. Further, the 50% growth inhibitory concentration (GI50) with HCT-8 is 1230 nM.

In the case of `CC(C)=CCC[C@H](C)[C@@H]1CC[C@@H](C)c2c1cc(C)c(O)c2O` [Compound 4, 7,8-dihydroxyserrulat-14-ene], in the assay on HCT-8, the EC50 was 12900 nM, the GI50 was found to be 12900 nM and the IC50 was found to be 12900 nM.

For the compound `Nc1ncnc2c1ncn2[C@@H]1O[C@H](CSCC[C@H](N)C(=O)O)[C@@H](O)[C@H]1O` [SAH], the 50% inhibitory concentration (IC50) came to 970 nM at MLL complex (h) (read-out: Reference IC50) and 1800 nM at SETDB1 (h) (read-out: Reference IC50).
